Consider nine molecules from patent publication EP0096569A2, “Triazole antifungal agents” (Pfizer Limited, priority 1982, dated 1983).

The test has as its system Candida albicans. Briefly: in vivo evaluation in mice inoculated with Candida albicans (protection against lethal infection, PD50). On the set-up: unit not given beside the values. As to conditions: oral, dose level giving 50% protection against the lethal effect of the infection. Here is the method:
The in vivo evaluation of the compounds can be carried out at a series of dose levels by intraperitoneal or intravenous injection or by oral administration, to mice which are inoculated with a strain of Candida albicans. Untreated mice die within 48 hours and the dose level at which the compound provides 50% protection against the lethal effect of the infection (PDSO) is noted.
Activity Data in mice (oral PD50 values)
In the case of `Clc1ccc(C(Cl)(Cn2cncn2)Cn2cncn2)c(Cl)c1` [Product of Example 1, 1,3-Bis-(1H-1,2,4-triazol-1-yl)-2-chloro-2-(2,4-dichlorophenyl) propane], the PD50 is given as 0.1.
As to `Clc1ccc(C(Br)(Cn2cncn2)Cn2cncn2)c(Cl)c1` [Product of Example 2, 1,3-Bis(lH-1,2,4-triazol-1-yl)-2-bromo-2-(2,4-dichlorophenyl) propane], the PD50 came to 0.03.
Take `Fc1ccc(C(Br)(Cn2cncn2)Cn2cncn2)c(F)c1` [Product of Example 3, 1,3-Bis(1H-1,2,4-triazol-1-yl)-2-bromo-2-(2,4-difluorophenyl)propane]: the PD50 was determined as 0.3.
Molecule `FC(Cn1cncn1)(Cn1cncn1)c1ccc(Cl)cc1Cl` [Product of Example 4, 1,3-Bis(1H-1,2,4-triazol-1-yl)-2-(2,4-dichlorophenyl)-2-fluoro-propane] gave a PD50 of 1.8.
The value for `Fc1cc(C(Cl)(Cn2cncn2)Cn2cncn2)c(F)cc1Br` [Product of Example 5] was 1.6; that for `Fc1ccc(C(Cl)(Cn2cncn2)Cn2cncn2)c(F)c1` [Product of Example 6] was 0.9.
The figure for `ClC(Cn1cncn1)(Cn1cncn1)c1ccc(I)cc1` [Product of Example 7] is 0.2.
The molecule `Clc1ccc(C(Cl)(Cn2cncn2)Cn2cncn2)cc1` [Product of Example 8] displayed a PD50 of 0.3.
Take `Clc1ccc(C(Cl)(Cn2cncn2)Cn2cncn2)nc1` [Product of Example 9, 1,3-Bis(1A-1,2,4-triazol-1-yl)-2-chloro-2-(5-chloropyrid-2-yl)propane]: the PD50 turned out to be 0.2.
